{"source": "paper PMC7280082", "about": "(Acta Pharmaceutica Sinica. B, 2019)", "key": {"[1]": {"system": "WT HIV-1 (IIIB)", "assay": "microbe, parasite or virus in culture", "format": "cell-based"}, "[2]": {"system": "HIV-1 Y181C mutant strain", "assay": "microbe, parasite or virus in culture", "format": "cell-based"}, "[3]": {"system": "HIV-1 E138K mutant strain", "assay": "microbe, parasite or virus in culture", "format": "cell-based"}, "[4]": {"system": "HIV-1 K103N mutant strain", "assay": "microbe, parasite or virus in culture", "format": "cell-based"}, "[5]": {"system": "HIV-1 L100I mutant strain", "assay": "microbe, parasite or virus in culture", "format": "cell-based"}, "[6]": {"system": "HIV-1 F227L + V106A double-mutant strain", "assay": "microbe, parasite or virus in culture", "format": "cell-based"}, "[7]": {"assay": "Cytotoxicity in mock-infected MT-4 cell cultures, MTT method", "details": "human, mock-infected MT-4 cells"}, "[8]": {"system": "HIV-2 strain (ROD)", "assay": "Anti-HIV-2", "format": "cell-based"}, "[9]": {"assay": "In vivo pharmacokinetics in Wistar rat", "details": "plasma"}, "[10]": {"system": "HIV-1 Y188L mutant strain", "assay": "microbe, parasite or virus in culture", "format": "cell-based"}, "[11]": {"molecular_target": "WT HIV-1 RT (Human immunodeficiency virus type 1 group M subtype B, UniProt P03366)", "assay": "Recombinant HIV-1 RT inhibitory assay", "format": "biochemical"}, "[12]": {"system": "HIV-1 RES056 (K103N + Y181C) double-mutant strain", "assay": "microbe, parasite or virus in culture", "format": "cell-based"}, "[13]": {"system": "Kunming mice", "assay": "Acute toxicity experiment in Kunming mice", "format": "in vivo", "details": "single oral dose of 2000 mg/kg"}, "[14]": {"details": "ratio of EC50 (resistant viral strain)/EC50 (wild-type viral strain)"}}, "data": [{"smiles": "Cc1cc(-c2ccc(C#N)cc2)cc(C)c1Oc1nc(NC2CCN(Cc3ccc(C(N)=O)cc3)CC2)nc2ccsc12", "note": "[Compound 26, 4-((4-((4-((4′-Cyano-3,5-dimethyl-[1,1′-biphenyl]-4-yl)oxy)thieno[3,2-d]pyrimidin-2-yl)amino)piperidin-1-yl)methyl)benzamide]", "values": [{"measurement": "EC50", "setting": "[1]; Human immunodeficiency virus 1, IIIB, MT4, read-out: EC50 IIIB", "value": "0.00993 ± 0.00127", "unit": "µM"}, {"measurement": "SI IIIB", "setting": "[1]; ratio of CC50/EC50", "value": 552}, {"measurement": "SI Y181C", "setting": "[2]; CC50/EC50", "value": 290}, {"measurement": "EC50", "setting": "[2]; Human immunodeficiency virus 1, MT4, read-out: EC50 Y181C", "value": "0.0189 ± 0.00228", "unit": "µM"}, {"measurement": "RF Y181C", "setting": "[2]; [14]", "value": 1.9}, {"measurement": "SI E138K", "setting": "[3]; CC50/EC50", "value": 236}, {"measurement": "EC50", "setting": "[3]; Human immunodeficiency virus 1, MT4, read-out: EC50 E138K", "value": "0.0232 ± 0.00864", "unit": "µM"}, {"measurement": "RF E138K", "setting": "[3]; [14]", "value": 2.3}, {"measurement": "SI K103N", "setting": "[4]; CC50/EC50", "value": 910}, {"measurement": "EC50", "setting": "[4]; Human immunodeficiency virus 1, MT4, read-out: EC50 K103N", "value": "0.00602 ± 0.00084", "unit": "µM"}, {"measurement": "SI L100I", "setting": "[5]; CC50/EC50", "value": 521}, {"measurement": "EC50", "setting": "[5]; Human immunodeficiency virus 1, MT4, read-out: EC50 L100I", "value": "0.0105 ± 0.00456", "unit": "µM"}, {"measurement": "RF L100I", "setting": "[5]; [14]", "value": 1.1}, {"measurement": "SI F227L + V106A", "setting": "[6]; CC50/EC50", "value": 56}, {"measurement": "EC50", "setting": "[6]; Human immunodeficiency virus 1, MT4, read-out: EC50 F227L + V106A", "value": "0.0972 ± 0.0253", "unit": "µM"}, {"measurement": "RF F227L + V106A", "setting": "[6]; [14]", "value": 9.8}, {"measurement": "CC50 at 5 days", "setting": "[7]", "value": "5.48 ± 2.12", "unit": "µM"}, {"measurement": "EC50", "setting": "[8]; Human immunodeficiency virus 2, MT4, read-out: EC50 ROD", "value": "> 5.49", "unit": "µM"}, {"measurement": "SI ROD", "setting": "[8]; ratio of CC50/EC50", "value": "<1"}, {"measurement": "AUC(0-inf)", "setting": "[9]; iv, 2 mg/kg", "value": "1.34 ± 0.0539", "unit": "µg·h/mL"}, {"measurement": "AUC(0-t)", "setting": "[9]; iv, 2 mg/kg", "value": "1.29 ± 0.0627", "unit": "µg·h/mL"}, {"measurement": "Cmax", "setting": "[9]; iv, 2 mg/kg", "value": "0.941 ± 0.181", "unit": "µg/mL"}, {"measurement": "clearance", "setting": "[9]; iv, 2 mg/kg", "value": "1.5 ± 0.0624", "unit": "L/h/kg"}, {"measurement": "half-life", "setting": "[9]; iv, 2 mg/kg", "value": "1.71 ± 0.24", "unit": "h"}, {"measurement": "bioavailability", "setting": "[9]; oral, 20 mg/kg", "value": 33.8, "unit": "%"}, {"measurement": "AUC(0-inf)", "setting": "[9]; po, 20 mg/kg", "value": "4.76 ± 1.35", "unit": "µg·h/mL"}, {"measurement": "AUC(0-t)", "setting": "[9]; po, 20 mg/kg", "value": "4.36 ± 1.57", "unit": "µg·h/mL"}, {"measurement": "Cmax", "setting": "[9]; po, 20 mg/kg", "value": "0.762 ± 0.296", "unit": "µg/mL"}, {"measurement": "Tmax", "setting": "[9]; po, 20 mg/kg", "value": "2 ± 0.32", "unit": "h"}, {"measurement": "half-life", "setting": "[9]; po, 20 mg/kg", "value": "2.68 ± 0.2", "unit": "h"}, {"measurement": "SI Y188L", "setting": "[10]; CC50/EC50", "value": 229}, {"measurement": "EC50", "setting": "[10]; Human immunodeficiency virus 1, MT4, read-out: EC50 Y188L", "value": "0.0239 ± 0.0024", "unit": "µM"}, {"measurement": "RF Y188L", "setting": "[10]; [14]", "value": 2.4}, {"measurement": "IC50", "setting": "[11]", "value": "0.182 ± 0.016", "unit": "µM"}, {"measurement": "SI RES056", "setting": "[12]; CC50/EC50", "value": 44}, {"measurement": "EC50", "setting": "[12]; Human immunodeficiency virus 1, MT4, read-out: EC50 RES056", "value": "0.125 ± 0.0393", "unit": "µM"}, {"measurement": "RF RES056", "setting": "[12]; [14]", "value": 12.6}, {"measurement": "mortality or poisoning symptom", "setting": "[13]", "value": "no mortality or poisoning symptom"}]}]}
